Experimental data as given in patent US20220177511A1, “SERIES OF HALOGENATED TETRACYCLIC TRITERPENE DERIVATIVES AND THEIR PREPARATION AND APPLICATION” (SHANGHAI KING-X BIOTECH CO., LTD, priority 2019, published 2022).
Converted amounts (≈) assume the structure as drawn. Like-named read-outs stand apart in the source and are kept apart here.

Experiment: Solubility test in water and FaSSIF
Format: physicochemical
Conditions: 37° C., up to 24 hours
[1] = thermodynamic from solid, FaSSIF (pH 6.5), read-out: Solubility
[2] = thermodynamic from solid, Water, read-out: Solubility

Solubility (FaSSIF (pH 6.5)) [µg/mL]	Solubility (Water) [µg/mL]	SMILES	Solubility [1] [µg/mL]	Solubility [2] [µg/mL]
4020	2050	CC(C)(O)[C@@H]1CC[C@@](C)([C@H]2[C@@H](O)C[C@@]3(C)[C@@H]4C[C@H](OC(=O)COCCOCCOCCN)[C@H]5C(C)(C)C(F)(F)CC[C@@]56C[C@@]46CC[C@]23C)O1.O=C(O)C(F)(F)F [Compound 2-8, 2-(2-(2-(2-(((2aR,3R,4S,5aS,5bS,7S,7aR,11aR,12aS)-9,9-difluoro-4-hydroxy-3-((2S,5S)-5-(2-hydroxypropan-2-yl)-2-methyltetrahydrofuran-2-yl)-2a,5a,8,8-tetramethyltetradecahydro-1H,12H-cyclopenta[a]cyclopropa[e]phenanthren-7-yl)oxy)-2-oxoethoxy)ethoxy)ethoxy)ethan-1-aminium Trifluoroacetate]	–	–
4520	2110	CC(C)(O)C1CCC(C)(C2C(O)CC3(C)C4CC(OC(=O)CNCCNCCN)C5C(C)(C)C(F)(F)CCC56CC46CCC23C)O1.O=[N+]([O-])O [Compound 2-9, 2-((2-((2-(((2aR,3R,4S,5aS,5bS,7S,7aR,11aR,12aS)-9,9-difluoro-4-hydroxy-3-((2S,5S)-5-(2-hydroxypropan-2-yl)-2-methyltetrahydrofuran-2-yl)-2a,5a,8,8-tetramethyltetradecahydro-1H,12H-cyclopenta[a]cyclopropa[e]phenanthren-7-yl)oxy)-2-oxoethyl)amino)ethyl)amino)ethan-1-aminium Nitrate]	–	–
–	–	CC(C)(O)[C@@H]1CC[C@@](C)([C@H]2[C@@H](O)C[C@@]3(C)[C@@H]4C[C@H](OC(=O)COCCO)[C@H]5C(C)(C)C(F)(F)CC[C@@]56C[C@@]46CC[C@]23C)O1 [Compound 2-11, (2aR,3R,4S,5aS,5bS,7S,7aR,11aR,12aS)-9,9-difluoro-4-hydroxy-3-((2S,5S)-5-(2-hydroxypropan-2-yl)-2-methyltetrahydrofuran-2-yl)-2a,5a,8,8-tetramethyltetradecahydro-1H,12H-cyclopenta[a]cyclopropa[e]phenanthren-7-yl-2-(2-hydroxyethoxy)acetate]	1050 (≈ 1710 µM)	550 (≈ 898 µM)
–	–	CC(C)(O)[C@@H]1CC[C@@](C)([C@H]2[C@@H](O)C[C@@]3(C)[C@@H]4C[C@H](OC(=O)COCCOCCO)[C@H]5C(C)(C)C(F)(F)CC[C@@]56C[C@@]46CC[C@]23C)O1 [Compound 2-12, (2aR,3R,4S,5aS,5bS,7S,7aR,11aR,12aS)-9,9-difluoro-4-hydroxy-3-((2S,5S)-5-(2-hydroxypropan-2-yl)-2-methyltetrahydrofuran-2-yl)-2a,5a,8,8-tetramethyltetradecahydro-1H,12H-cyclopenta[a]cyclopropa[e]phenanthren-7-yl-2-(2-(2-hydroxyethoxy)ethoxy) Acetate]	1110	680
–	–	CC(C)(O)[C@@H]1CC[C@@](C)([C@H]2[C@@H](O)C[C@@]3(C)[C@@H]4C[C@H](OC(=O)COCCOCCOCCO)[C@H]5C(C)(C)C(F)(F)CC[C@@]56C[C@@]46CC[C@]23C)O1 [Compound 2-13, (2aR,3R,4S,5aS,5bS,7S,7aR,11aR,12aS)-9,9-difluoro-4-hydroxy-3-((2S,5S)-5-(2-hydroxypropan-2-yl)-2-methyltetrahydrofuran-2-yl)-2a,5a,8,8-tetramethyltetradecahydro-1H,12H-cyclopenta[a]cyclopropa[e]phenanthren-7-yl-2-(2-(2-(2-hydroxyethoxy)ethoxy)ethoxy)acetate]	1150 (≈ 1640 µM)	850 (≈ 1210 µM)
–	–	CC(C)(O)[C@@H]1CC[C@@](C)([C@H]2[C@@H](O)C[C@@]3(C)[C@@H]4C[C@H](OC(=O)COCCOCCOCCOCCOCCO)[C@H]5C(C)(C)C(F)(F)CC[C@@]56C[C@@]46CC[C@]23C)O1 [Compound 2-14, (2aR,3R,4S,5aS,5bS,7S,7aR,11aR,12aS)-9,9-difluoro-4-hydroxy-3-((2S,5S)-5-(2-hydroxypropan-2-yl)-2-methyltetrahydrofuran-2-yl)-2a,5a,8,8-tetramethyltetradecahydro-1H,12H-cyclopenta[a]cyclopropa[e]phenanthren-7-yl-17-hydroxy-3,6,9,12,15-pentaoxaheptadecanoate]	2310 (≈ 2930 µM)	1230 (≈ 1560 µM)
1850	600	CC(C)C[C@H](N)C(=O)O[C@H]1C[C@@H]2[C@]3(CC[C@]4(C)[C@@H]([C@]5(C)CC[C@@H](C(C)(C)O)O5)[C@@H](O)C[C@@]24C)C[C@@]32CCC(F)(F)C(C)(C)[C@H]12.Cl [Compound 2-18, (S)-1-(((2aR,3R,4S,5aS,5bS,7S,7aR,11aR,12aS)-9,9-difluoro-4-hydroxy-3-((2S,5S)-5-(2-hydroxypropan-2-yl)-2-methyltetrahydrofuran-2-yl)-2a,5a,8,8-tetramethyltetradecahydro-1H,12H-cyclopenta[a]cyclopropa[e]phenanthren-7-yl)oxy)-4-methyl-1-oxopentan-2-aminium Chloride]	–	–
3500	900	Br.CC(C)(O)[C@@H]1CC[C@@](C)([C@H]2[C@@H](O)C[C@@]3(C)[C@@H]4C[C@H](OC(=O)[C@@H](N)CC(N)=O)[C@H]5C(C)(C)C(F)(F)CC[C@@]56C[C@@]46CC[C@]23C)O1 [Compound 2-21, (S)-4-amino-1-(((2aR,3R,4S,5aS,5bS,7S,7aR,11aR,12aS)-9,9-difluoro-4-hydroxy-3-((2S,5S)-5-(2-hydroxypropan-2-yl)-2-methyltetrahydrofuran-2-yl)-2a,5a,8,8-tetramethyltetradecahydro-1H,12H-cyclopenta[a]cyclopropa[e]phenanthren-7-yl)oxy)-1,4-dioxobutan-2-aminium Bromide]	–	–

SMILES	Solubility (FaSSIF (pH 6.5)) [µg/mL]	Solubility (Water) [µg/mL]	Solubility [1] [µg/mL]	Solubility [2] [µg/mL]
CC(C)(O)C1CCC(C)(C2C(O)CC3(C)C4CC(OC(=O)C5CCNCC5)C5C(C)(C)C(F)(F)CCC56CC46CCC23C)O1.Cl [Compound 2-2, 4-((((2aR,3R,4S,5aS,5bS,7S,7aR,11aR,12aS)-9,9-difluoro-4-hydroxy-3-((2S,5S)-5-(2-hydroxypropan-2-yl)-2-methyltetrahydrofuran-2-yl)-2a,5a,8,8-tetramethyltetradecahydro-1H,12H-cyclopenta[a]cyclopropa[e]phenanthren-7-yl)oxy)carbonyl)piperidin-1-ium Chloride]	1660	880	–	–
Br.CC(C)(O)C1CCC(C)(C2C(O)CC3(C)C4CC(OC(=O)COCCOCCOCCOCCOCCN)C5C(C)(C)C(F)(F)CCC56CC46CCC23C)O1 [Compound 2-10, 17-(((2aR,3R,4S,5aS,5bS,7S,7aR,11aR,12aS)-9,9-difluoro-4-hydroxy-3-((2S,5S)-5-(2-hydroxypropan-2-yl)-2-methyltetrahydrofuran-2-yl)-2a,5a,8,8-tetramethyltetradecahydro-1H,12H-cyclopenta[a]cyclopropa[e]phenanthren-7-yl)oxy)-17-oxo-3,6,9,12,15-pentaoxaheptadecan-1-aminium Bromide]	4390	2280	–	–
